# Tested on: [^18F]fallypride binding at D2/D3 receptors (extracellular dopamine)
# Assay: [^18F]fallypride PET, rats with coca-5HT3 in the LHb and controls
# Format: in vivo, rat
# Procedure: Male Sprague–Dawley rats were anaesthetized with isoflurane (1.5-2%) and then placed onto a stereotaxic frame (Kopf) and injected with AAV5-Syn::coca-5HT3-IRES-mCherry (0.5 µl, 4.95 × 10^12 vg per ml) into the LHb (AP relative to bregma, −3.8 mm; ML, ±0.7 mm; DV, −5.25 mm, at a 10° angle) (n = 5) or underwent sham surgery (n = 9). Male Th-cre rats were anaesthetized with isoflurane (1.5–2%) and then placed onto a stereotaxic frame (Kopf) and injected with AAV1-Syn::FLEX-coca-GlyR-IRES-mCherry (0.5 µl, 6 × 10^12 vg per ml) into the VTA (AP, −6.0 mm relative to bregma; ML, ±1.9 mm; DV, −8.3 mm at a 10° angle) (n = 9) or underwent sham surgery (n = 6). Approximately 3 weeks later, the rats were anaesthetized, placed inside the PET scanner (Mediso NanoScan PET/CT), injected with [^18F]fallypride (~13 MBq) and then scanned using PET. [^18F]fallypride reaches steady-state by around 45 min after its injection and then remains stable for at least 150 min[60]. […] The PET data were reconstructed and corrected for dead-time and radioactive decay and then co-registered to an magnetic resonance imaging template as previously described[46],[60],[61]. Co-registered images were analysed using one-way ANOVA and the resulting parametric images were filtered for statistically significant (P < 0.01) clusters larger than 100 contiguous voxels. All statistical parametric mapping (SPM) analyses were performed using MATLAB R2016 (MathWorks) and SPM12 (University College London)[62]. Next, additional quantitative assessments of PET images were performed using the PMOD software environment (PMOD Technologies). We generated time–activity curves using the co-registered dynamic PET images and the significant voxel clusters defined by the voxel-wise SPM analysis as the volume of interest. The standardized uptake value (SUV) was calculated using the equation SUV = C/(dose/BW) where C is the tissue concentration of [^18F]fallypride (kBq cm^−3), dose is the administered dose (MBq) and BW (kg) is the animal’s body weight. Statistical analyses were performed using Prism 10 (GraphPad).
smiles,measurement,setting,value
COC(=O)[C@H]1[C@@H](OC(=O)c2ccccc2)C[C@@H]2CC[C@H]1N2C [cocaine],"Cerebellum, Mean","Coca-5HT3, Time 60 min",111.27
same,"Striatum, Mean","Coca-5HT3, Time 60 min",100.47
same,"Cerebellum, Mean","Coca-5HT3, Time 63 min",107.441
same,"Striatum, Mean","Coca-5HT3, Time 63 min",99.116
same,"Cerebellum, Mean","Coca-5HT3, Time 66 min",105.193
same,"Striatum, Mean","Coca-5HT3, Time 66 min",105.45
same,"Cerebellum, Mean","Coca-5HT3, Time 69 min",101.891
same,"Striatum, Mean","Coca-5HT3, Time 69 min",101.914
same,"Cerebellum, Mean","Coca-5HT3, Time 72 min",100.511
same,"Striatum, Mean","Coca-5HT3, Time 72 min",99.6684
same,"Cerebellum, Mean","Coca-5HT3, Time 75 min",97.2849
same,"Striatum, Mean","Coca-5HT3, Time 75 min",101.446
same,"Cerebellum, Mean","Coca-5HT3, Time 78 min",98.3773
same,"Striatum, Mean","Coca-5HT3, Time 78 min",97.1795
same,"Cerebellum, Mean","Coca-5HT3, Time 81 min",97.6857
same,"Striatum, Mean","Coca-5HT3, Time 81 min",99.4438
same,"Cerebellum, Mean","Coca-5HT3, Time 84 min",92.2137
same,"Striatum, Mean","Coca-5HT3, Time 84 min",99.5545
same,"Cerebellum, Mean","Coca-5HT3, Time 87 min",94.6333
same,"Striatum, Mean","Coca-5HT3, Time 87 min",100.176
same,"Cerebellum, Mean","Coca-5HT3, Time 90 min",93.4987
same,"Striatum, Mean","Coca-5HT3, Time 90 min",95.582
same,"Cerebellum, Mean","Coca-5HT3, Time 92 min",99.4012
same,"Striatum, Mean","Coca-5HT3, Time 92 min",95.8906
same,"Cerebellum, Mean","Coca-5HT3, Time 94 min",96.5331
same,"Striatum, Mean","Coca-5HT3, Time 94 min",92.7294
same,"Cerebellum, Mean","Coca-5HT3, Time 96 min",96.1496
same,"Striatum, Mean","Coca-5HT3, Time 96 min",97.7961
same,"Cerebellum, Mean","Coca-5HT3, Time 98 min",96.6515
same,"Striatum, Mean","Coca-5HT3, Time 98 min",98.5867
same,"Cerebellum, Mean","Coca-5HT3, Time 100 min",92.3336
same,"Striatum, Mean","Coca-5HT3, Time 100 min",97.1381
same,"Cerebellum, Mean","Coca-5HT3, Time 104 min",94.2368
same,"Striatum, Mean","Coca-5HT3, Time 104 min",97.3152
same,"Cerebellum, Mean","Coca-5HT3, Time 106 min",94.1983
same,"Striatum, Mean","Coca-5HT3, Time 106 min",95.2722
same,"Cerebellum, Mean","Coca-5HT3, Time 110 min",94.753
same,"Striatum, Mean","Coca-5HT3, Time 110 min",92.686
same,"Cerebellum, Mean","Coca-5HT3, Time 112 min",89.5645
same,"Striatum, Mean","Coca-5HT3, Time 112 min",94.0331
same,"Cerebellum, Mean","Coca-5HT3, Time 116 min",89.6884
same,"Striatum, Mean","Coca-5HT3, Time 116 min",93.7732
same,"Cerebellum, Mean","Coca-5HT3, Time 118 min",92.5349
same,"Striatum, Mean","Coca-5HT3, Time 118 min",94.2486
same,"Cerebellum, Mean","Coca-5HT3, Time 120 min",85.32
same,"Striatum, Mean","Coca-5HT3, Time 120 min",92.7482
same,"Cerebellum, Mean","Control, Time 60 min",103.946
same,"Striatum, Mean","Control, Time 60 min",104.425
same,"Cerebellum, Mean","Control, Time 63 min",103.573
same,"Striatum, Mean","Control, Time 63 min",105.053
same,"Cerebellum, Mean","Control, Time 66 min",103.781
same,"Striatum, Mean","Control, Time 66 min",101.615
same,"Cerebellum, Mean","Control, Time 69 min",101.695
same,"Striatum, Mean","Control, Time 69 min",102.645
same,"Cerebellum, Mean","Control, Time 72 min",100.786
same,"Striatum, Mean","Control, Time 72 min",99.1445
same,"Cerebellum, Mean","Control, Time 75 min",98.0752
same,"Striatum, Mean","Control, Time 75 min",97.188
same,"Cerebellum, Mean","Control, Time 78 min",100.961
same,"Striatum, Mean","Control, Time 78 min",99.7495
same,"Cerebellum, Mean","Control, Time 81 min",99.7275
same,"Striatum, Mean","Control, Time 81 min",97.1175
same,"Cerebellum, Mean","Control, Time 84 min",97.0682
same,"Striatum, Mean","Control, Time 84 min",97.2682
same,"Cerebellum, Mean","Control, Time 87 min",95.0129
same,"Striatum, Mean","Control, Time 87 min",98.2036
same,"Cerebellum, Mean","Control, Time 90 min",95.374
same,"Striatum, Mean","Control, Time 90 min",97.5908
same,"Cerebellum, Mean","Control, Time 92 min",99.2942
same,"Striatum, Mean","Control, Time 92 min",96.7723
same,"Cerebellum, Mean","Control, Time 94 min",98.6955
same,"Striatum, Mean","Control, Time 94 min",94.2988
same,"Cerebellum, Mean","Control, Time 96 min",97.5545
same,"Striatum, Mean","Control, Time 96 min",90.3041
same,"Cerebellum, Mean","Control, Time 98 min",95.1481
same,"Striatum, Mean","Control, Time 98 min",92.8392
same,"Cerebellum, Mean","Control, Time 100 min",95.7886
same,"Striatum, Mean","Control, Time 100 min",87.2087
same,"Cerebellum, Mean","Control, Time 104 min",93.5542
same,"Striatum, Mean","Control, Time 104 min",88.7106
same,"Cerebellum, Mean","Control, Time 106 min",95.3248
same,"Striatum, Mean","Control, Time 106 min",84.6758
same,"Cerebellum, Mean","Control, Time 110 min",94.4655
same,"Striatum, Mean","Control, Time 110 min",84.755
same,"Cerebellum, Mean","Control, Time 112 min",92.6418
same,"Striatum, Mean","Control, Time 112 min",85.4315
same,"Cerebellum, Mean","Control, Time 116 min",92.1838
same,"Striatum, Mean","Control, Time 116 min",85.918
same,"Cerebellum, Mean","Control, Time 118 min",92.0673
same,"Striatum, Mean","Control, Time 118 min",82.9007
same,"Cerebellum, Mean","Control, Time 120 min",91.4483
same,"Striatum, Mean","Control, Time 120 min",84.8826
same,"[^18F]fallypride binding, cocaine versus saline","control rats, cocaine 3 mg per kg i.v., nucleus accumbens and ventromedial dorsal striatum voxels",significantly decreased
